Patent US8389565B2, “Glycosidase inhibitors and methods of synthesizing same” (Simon Fraser University, priority 2000, dated 2013)
pIC50, pKi: −log10 of the molar value. Structures can show the parent of a compound that is named as a salt. Where two headings read alike, the source gives them in different places. Blank lines part the entries; values can stand above or below the compound they belong to.

What was measured:
[1] = target: T1, glucoamylase G2 form from Aspergillus niger (Aspergillus niger, UniProt P69328); test: Inhibition of glucoamylase G2-catalyzed hydrolysis of maltose; assay type: biochemical
T1 construct: purchased Novo Nordisk, Bagsvaerd, Denmark
Description: The glucoamylase G2 form from Aspergillus niger was purified from a commercial enzyme (Novo Nordisk, Bagsvaerd, Denmark) as described.^19,20 The initial rates of glucoamylase G2-catalyzed hydrolysis of maltose was tested with 1 mM maltose as substrate in 0.1 M sodium acetate pH 4.5 at 45° C. using an enzyme concentration of 7.0×10^−8 M and five inhibitor concentrations in the range 1 μm-5 mM. The effect of the inhibition on rates of substrate hydrolysis were compared for the different compounds.

[2] = target: T2, porcine pancreatic α-amylase (PPA) (Sus scrofa, UniProt P00690); test: Inhibition of porcine pancreatic α-amylase activity towards DP17 amylose; assay type: biochemical
T2 construct: purchased Sigma
T2 sequence (P00690 16-511): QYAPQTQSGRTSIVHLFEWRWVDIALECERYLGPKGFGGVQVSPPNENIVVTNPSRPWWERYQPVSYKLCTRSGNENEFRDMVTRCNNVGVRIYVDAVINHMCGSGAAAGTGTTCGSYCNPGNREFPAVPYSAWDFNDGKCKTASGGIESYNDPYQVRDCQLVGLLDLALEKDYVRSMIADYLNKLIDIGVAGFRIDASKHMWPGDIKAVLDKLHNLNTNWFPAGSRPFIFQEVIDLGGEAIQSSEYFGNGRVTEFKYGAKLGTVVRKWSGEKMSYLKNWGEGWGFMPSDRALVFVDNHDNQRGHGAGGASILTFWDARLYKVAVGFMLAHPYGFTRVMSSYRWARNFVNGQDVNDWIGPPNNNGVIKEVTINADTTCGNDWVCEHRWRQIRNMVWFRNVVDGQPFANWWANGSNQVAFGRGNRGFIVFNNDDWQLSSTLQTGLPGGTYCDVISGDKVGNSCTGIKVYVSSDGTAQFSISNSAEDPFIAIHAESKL
From the text: (§1) Porcine pancreatic α-amylase (PPA) and bovine serum albumin (BSA) were purchased from Sigma. Amylose EX-1 (DP17; average degree of polymerization 17) was purchased from Hayashibara Chemical Laboratories (Okayama, Japan). Recombinant barley α-amylase isozyme 1 (AMY1) was produced and purified as described.^23 An aliquot of the porcine pancreatic x-amylase (PPA) crystalline suspension (in ammonium sulfate) was dialyzed extensively against the assay buffer without BSA. The enzyme concentration was determined by aid of amino acid analysis as determined using an LKB model Alpha Plus amino acid analyzer. […] Six different final inhibitor concentrations were used in the range 1 μM-5 mM. The inhibitor was pre-incubated with enzyme for 5 min at 37° C. before addition of substrate.

[3] = target: T3, Recombinant barley α-amylase isozyme 1 (AMY1) (Hordeum vulgare, UniProt P00693); test: Inhibition of barley α-amylase isozyme 1 activity towards DP17 amylose; assay type: biochemical
T3 construct: made in house
From the text: as §1

[4] = target: T4, Maltase Glucoamylase (MGA) (Homo sapiens, UniProt O43451); test: MGA activity in extracts of COS cells transfected with MGA5′ (maltase subunit) construct, maltose hydrolysis, glucose oxidase colorimetric assay; assay type: biochemical; design: COS cells transfected with MGA5′ (maltase subunit clone 10) construct were used; expressed in transfected cells; host or cells: COS cells
Description: In the assays, COS cells transfected with MGA5′ (maltase subunit clone 10) construct were used. Activity measurements were performed with cell extracts containing MGA. Maltose hydrolysis was monitored by measurement of the glucose released by a glucose oxidase colorimetric assay. Inhibition of this hydrolysis was measured as a reduction in OD reading.
In practice, an OD reading in the absence of the inhibitor was recorded, followed by a reading in the presence of the inhibitor. The percent reduction in OD reading upon administering a candidate inhibitor (see Table 11) was then correlated with a percent inhibition for a given concentration.
Target sequence in this assay (O43451 356-737 limits assumed): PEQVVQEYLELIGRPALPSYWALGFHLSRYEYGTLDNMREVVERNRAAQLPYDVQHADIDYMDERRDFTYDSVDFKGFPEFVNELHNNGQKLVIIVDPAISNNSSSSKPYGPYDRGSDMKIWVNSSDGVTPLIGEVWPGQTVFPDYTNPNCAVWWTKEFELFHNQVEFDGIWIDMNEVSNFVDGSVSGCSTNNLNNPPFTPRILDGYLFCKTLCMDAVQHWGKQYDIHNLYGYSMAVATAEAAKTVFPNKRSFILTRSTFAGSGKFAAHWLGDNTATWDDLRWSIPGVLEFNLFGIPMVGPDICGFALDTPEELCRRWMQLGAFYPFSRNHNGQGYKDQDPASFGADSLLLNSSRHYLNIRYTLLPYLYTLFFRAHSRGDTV

[5] = target: T4, Maltase Glucoamylase (MGA); test: Inhibition of recombinant human maltase glucoamylase (MGA), maltose substrate, glucose oxidase readout; assay type: biochemical; conditions: for pKi: maltose substrate, 100 mM MES buffer pH 6.5, 37° C., read-out: Ki value against recombinant human maltase glucoamylase (MGA); for pIC50: read-out: IC50 value against recombinant human MGA
Description: Enzyme Activity Assay. Analysis of MGA inhibition was performed using maltose as the substrate, and measuring the release of glucose. Reactions were carried out in 100 mM MES buffer pH 6.5 at 37° C. for 15 min. The reaction was stopped by boiling for 3 min. 20 μL aliquots were taken and added to […] of glucose oxidase assay reagent (Sigma) in a 96-well plate. Reactions were developed for 1 hour and absorbance was measured at 450 nm to determine the amount of glucose produced by MGA activity in the reaction. One unit of activity is defined as the hydrolysis of one […] of maltose per minute. All reactions were performed in triplicate and absorbance measurements were averaged to give a final result.
The program GraFit 4.0.14 was used to fit the data to the Michaelis-Menten equation and estimate the kinetic parameters, Km and Vmax, of the enzyme. Ki values for each inhibitor were determined by measuring the rate of maltose hydrolysis by MGA at varying inhibitor concentrations. Data were plotted in Lineweaver-Burk plots (1/rate vs. 1/[substrate]) and Ki values were determined by the equation Ki=Km[I]/(Vmax)m−Km, where “m” is the slope of the line. The Ki reported for each inhibitor was estimated by averaging the Ki values obtained from each of the different inhibitor concentrations.
Target sequence in this assay (O43451 87-954 limits assumed): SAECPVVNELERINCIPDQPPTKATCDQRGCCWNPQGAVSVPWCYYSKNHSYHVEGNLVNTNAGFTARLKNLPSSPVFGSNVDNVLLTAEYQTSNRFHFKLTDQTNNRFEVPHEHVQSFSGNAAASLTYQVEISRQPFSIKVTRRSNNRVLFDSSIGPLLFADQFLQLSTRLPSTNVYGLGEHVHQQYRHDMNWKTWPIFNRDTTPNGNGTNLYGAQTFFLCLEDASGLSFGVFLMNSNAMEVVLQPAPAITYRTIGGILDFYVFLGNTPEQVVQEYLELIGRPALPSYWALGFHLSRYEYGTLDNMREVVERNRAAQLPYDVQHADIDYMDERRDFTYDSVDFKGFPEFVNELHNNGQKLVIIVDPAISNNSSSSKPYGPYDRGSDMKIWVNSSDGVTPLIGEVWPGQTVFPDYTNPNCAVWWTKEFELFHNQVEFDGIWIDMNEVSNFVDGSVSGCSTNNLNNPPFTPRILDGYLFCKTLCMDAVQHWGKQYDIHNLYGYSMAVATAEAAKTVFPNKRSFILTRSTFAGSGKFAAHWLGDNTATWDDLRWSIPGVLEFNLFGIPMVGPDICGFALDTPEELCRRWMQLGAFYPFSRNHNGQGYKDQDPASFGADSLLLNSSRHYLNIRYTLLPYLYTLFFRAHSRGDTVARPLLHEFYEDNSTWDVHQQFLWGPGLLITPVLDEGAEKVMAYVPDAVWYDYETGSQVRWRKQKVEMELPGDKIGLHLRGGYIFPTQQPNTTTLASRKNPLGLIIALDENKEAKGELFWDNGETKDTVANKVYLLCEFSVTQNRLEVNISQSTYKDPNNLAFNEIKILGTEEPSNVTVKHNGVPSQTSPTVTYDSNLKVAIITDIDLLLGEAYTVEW

Sprague-Dawley rats = test: In vivo maltose gavage in catheterized rats: plasma glucose and insulin; design: species or system rat; conditions: maltose gavage 1000 mg/kg with 25 mg/kg drug
Description: Five week old Sprague-Dawley rats were housed singly under a 12:12-h light-dark photoperiod and given free access to water and rat chow (Purina rodent chow). After one week of acclimation, chronic indwelling catheters were implanted.
Animals were anesthetized with a combination of Ketamine-Xylazine-Butorphanol (0.1 ml/100 g im). Analgesic (Butorphenol, 1 mg/kg sc) was administered following recovery from anesthesia and the following morning. Antibiotic was administered by one dose sc and in the drinking water for 4 days post-operative (Baytril, 5 mg/kg sc, Bayer, Toronto, Canada; Baytril, 50 mg/ml: 0.36 ml solution in 250 ml drinking water). A sterile catheter (Intramedic PE-50 with ˜3 cm beveled Silastic tip) was placed in the left carotid artery and the distal end of the catheter was tunneled subcutaneously, exteriorized, and anchored at the nape of the neck. The catheters were protected from chewing by a stainless steel tether connected to a swivel system which allowed free movement of the animal and easy access to the catheter by the investigator.
The animals were allowed to recover for 1 week. Experiments were performed on conscious, unrestrained animals that had been fasted overnight by removal of chow from the cage hoppers at 2100. At 0800 the following morning animals were weighed and Atropine (0.05 mg/kg sc) was administered as a […]. At baseline, animals were administered a bolus of maltose by oral gavage (1000 mg/kg body weight) with or without drug (25 mg/kg body weight for all agents). Blood samples (0.1 mL) were taken via the implanted carotid line at -15 and -5 min for the baseline and at 7, 15, 30, 60, 90, 120, 210, 300 min.
Blood samples were kept on ice in microcentrifuge tubes and then were centrifuged. The plasma was stored at −20° C. until it was assayed. Plasma volume was triple replaced with heparinized saline (10u/mL), but red blood cells were not reinfused. Plasma glucose was assayed with the glucose oxidase method (Trinder RAICHEM Division of Hemagen Diagnostics, Inc. San Diego, Calif.). Plasma insulin concentrations were measured by rat insulin ELISA (Crystal Chem INC, Downers Grove, Ill.). Six experiments were performed for each treatment (control, Blintol, Acarbose, Salacinol).
All data are presented as means±SE. The significance of changes in plasma glucose and insulin were tested by two-way repeated-measures analysis of variance and were performed with the Statistical Analysis System for Windows (version 6.3, SAS Institute, Cary, N.C.). AUCs were compared using unpaired t-tests.

[6] = read-out: Ki PPA (Porcine pancreatic α-amylase)
[7] = read-out: Ki AMY1 (Barley α-amylase)

T3 sequence (P00693 25-438): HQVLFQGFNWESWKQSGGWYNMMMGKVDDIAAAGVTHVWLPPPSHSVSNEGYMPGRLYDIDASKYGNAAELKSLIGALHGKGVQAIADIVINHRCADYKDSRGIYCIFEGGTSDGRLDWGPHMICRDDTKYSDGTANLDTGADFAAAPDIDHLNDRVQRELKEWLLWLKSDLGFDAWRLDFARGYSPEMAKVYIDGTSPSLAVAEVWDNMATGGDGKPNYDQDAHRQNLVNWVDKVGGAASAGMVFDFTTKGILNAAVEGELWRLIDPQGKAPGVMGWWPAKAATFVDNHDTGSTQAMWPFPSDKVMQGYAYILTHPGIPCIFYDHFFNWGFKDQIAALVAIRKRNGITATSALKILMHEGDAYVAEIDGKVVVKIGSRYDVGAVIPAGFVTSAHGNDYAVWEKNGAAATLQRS
T1 sequence (P69328 other isoform, or with tags, fused parts or gaps): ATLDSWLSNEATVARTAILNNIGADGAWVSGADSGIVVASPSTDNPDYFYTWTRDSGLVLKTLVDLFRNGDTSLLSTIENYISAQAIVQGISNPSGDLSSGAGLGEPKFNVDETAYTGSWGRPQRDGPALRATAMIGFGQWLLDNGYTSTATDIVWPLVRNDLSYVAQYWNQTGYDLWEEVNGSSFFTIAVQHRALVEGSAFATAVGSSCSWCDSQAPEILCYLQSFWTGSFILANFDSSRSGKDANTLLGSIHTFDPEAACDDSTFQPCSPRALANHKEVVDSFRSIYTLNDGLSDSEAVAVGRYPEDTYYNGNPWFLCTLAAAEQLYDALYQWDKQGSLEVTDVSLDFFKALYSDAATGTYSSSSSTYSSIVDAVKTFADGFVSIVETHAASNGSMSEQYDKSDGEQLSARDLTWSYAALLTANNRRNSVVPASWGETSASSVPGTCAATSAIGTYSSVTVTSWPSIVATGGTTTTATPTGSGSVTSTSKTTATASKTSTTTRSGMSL

SMILES: OC1C[S+]2CCCC2[C@@H](O)C1O (stereo partly shown)
pKi ([1]; read-out: Ki GA (Glucoamylase)): 2.88 | pKi [2, 6]: < 2.30 | pKi [3, 7]: < 2.30

SMILES: O=S(=O)([O-])O[C@H](CO)[C@@H](O)C[S@@+]1C[C@H](O)[C@@H](O)[C@@H]1CO
pKi [1]: 2.66 | pKi [2, 6]: < 2.30 | pKi [3, 7]: < 2.30

SMILES: O=S(=O)([O-])O[C@H](CO)[C@@H](O)C[S@+]1C[C@@H](O)[C@H](O)[C@H]1CO
pKi [1]: 2.97 | pKi [2, 6]: < 2.30 | pKi [3, 7]: < 2.30

SMILES: O=S(=O)(O)O[C@@H](CO)[C@H](O)CN1C[C@@H](O)[C@H](O)[C@H]1CO
pKi ([1]; read-out: Ki GA (Glucoamylase)): < 2.60 | pKi [2, 6]: < 2.30 | Ki MGA (Human intestinal maltase glucoamylase) ([4]; only the order of magnitude of activity (nM, μM, mM) or n.a. = not active): mM | pKi [3, 7]: < 2.30

SMILES: O=S(=O)([O-])O[C@@H](CO)[C@H](O)C[S@+]1C[C@H](O)[C@@H](O)[C@H]1CO
pKi [1]: < 2.30 | pKi [2, 6]: 4.28 | pKi [3, 7]: 3.96

SMILES: O=S(=O)(O)O[C@@H](CO)[C@H](O)CN1C[C@H](O)[C@@H](O)[C@H]1CO
pKi ([1]; read-out: Ki GA (Glucoamylase)): < 1.52 | pKi [2, 6]: < 2.30 | pKi [3, 7]: < 2.30

SMILES: O=S(=O)([O-])O[C@H](CO)[C@@H](O)C[Se@+]1C[C@@H](O)[C@H](O)[C@H]1CO
pKi ([1]; read-out: Ki GA (Glucoamylase)): < 2.05 | pKi [2]: < 2.30 | pKi [3]: < 2.30

SMILES: C[C@H]1O[C@H](O[C@H]2[C@H](O)[C@@H](O)[C@@H](O[C@H]3[C@H](O)[C@@H](O)C(O)O[C@@H]3CO)O[C@@H]2CO)[C@H](O)[C@@H](O)[C@@H]1N[C@H]1C=C(CO)[C@@H](O)[C@H](O)[C@H]1O (stereo partly shown) [Acarbose]
inhibition at 5 µM ([4]; 5 μM concentration, COS cell extracts containing MGA, read-out: percent inhibition of the breakdown of maltose): 4% | time at which plasma glucose returned to basal (Sprague-Dawley rats): 90 min | 15 minute glucose excursion from basal (Sprague-Dawley rats; mean ± SE, n=6): 34.2 ± 3.5 mg/dL | decrease of the 90 minute insulin AUC (Sprague-Dawley rats; versus Control): 49%

SMILES: O=S(=O)([O-])O[C@@H]([C@H](O)C[S@+]1C[C@@H](O)[C@H](O)[C@H]1CO)[C@@H](O)CO [Compound 94, 1,4-Dideoxy-1,4-[[2S,3R,4S-2,4,5-trihydroxy-3-(sulfooxy)pentyl]episufonium-ylidene]-D-arabinitol]
inhibitory activity against recombinant human MGA (in words) [5]: did not inhibit

SMILES: O=S(=O)([O-])O[C@H]([C@H](O)[C@@H](O)CO)[C@H](O)C[S@+]1C[C@@H](O)[C@H](O)[C@H]1CO [Compound 95, 1,4-Dideoxy-1,4-[[2S,3R,4R,5S-2,4,5,6-tetrahydroxy-3-(sulfooxy)hexyl]episufonium-ylidene]-D-arabinitol]
inhibitory activity against recombinant human MGA (in words) [5]: active

SMILES: O=S(=O)([O-])O[C@@H]([C@H](O)[C@@H](O)CO)[C@H](O)C[S@+]1C[C@@H](O)[C@H](O)[C@H]1CO [Compound 96, 1,4-Dideoxy-1,4-[[2S,3S,4R,5S-2,4,5,6-tetrahydroxy-3-(sulfooxy)hexyl]episufonium-ylidene]-D-arabinitol]
inhibitory activity against recombinant human MGA (in words) [5]: active

SMILES: O=S(=O)([O-])O[C@@H]([C@H](O)CO)[C@H](O)C[S@+]1C[C@@H](O)[C@H](O)[C@H]1CO [Compound 97, 1,4-Dideoxy-1,4-[[2S,3S,4R-2,4,5-trihydroxy-3-(sulfooxy)pentyl]episufonium-ylidene]-D-arabinitol]
pKi [5]: 6.77

Second part, the compound after the results:

pKi [5]: 4.59
SMILES: O=S(=O)(O)OC(C(O)CN1CC(O)C(O)C1CO)C(O)C(O)CO (single isomer, unassigned) [Compound 193]

pKi [5]: 5.30
SMILES: O=S(=O)(O)OC(C(O)CN1CC(O)C(O)C1CO)C(O)C(O)CO (single isomer, unassigned) [Compound 196]

pIC50 [5]: 4.00
SMILES: O=S(=O)(O)OC(C(O)CN1CC(O)C(O)C1CO)C(O)C(O)CO (single isomer, unassigned) [Compound 252]

pIC50 [5]: 4.52
SMILES: O=S(=O)(O)OC(C(O)CN1CC(O)C(O)C1CO)C(O)C(O)CO (single isomer, unassigned) [Compound 255]

inhibitory activity against recombinant human MGA (in words) [5]: not active
SMILES: O=S(=O)([O-])OC(C(O)C[S+]1CC(O)C(O)C1CO)C(O)C(O)CO [Compound 192, 1,4-Dideoxy-1,4-[[(2R,3S,4R,5R)-2,4,5,6-tetrahydroxy-3-(sulfooxy)hexyl]-episulfoniumylidene]-D-arabinitol Inner Salt]

inhibitory activity against recombinant human MGA (in words) [5]: not effective inhibitors
SMILES: O=S(=O)([O-])O[C@@H](CO)[C@H](O)C[S@+]1C[C@@H](O)[C@@H](O)[C@H]1CO [Compound 233, 1,4-Dideoxy-1,4-[[(2S,3S)-2,4-dihydroxy-3-(sulfooxy)butyl]-(S)-episulfoniumylidene]-D-lyxitol Inner Salt]

inhibitory activity against recombinant human MGA (in words) [5]: not effective inhibitors
SMILES: O=S(=O)([O-])O[C@@H](CO)[C@H](O)C[S@+]1C[C@H](O)[C@H](O)[C@H]1CO [Compound 234, 1,4-Dideoxy-1,4-[[(2S,3S)-2,4-dihydroxy-3-(sulfooxy)butyl]-(R)-episulfoniumylidene]-D-ribitol Inner Salt]
